Measured values: patent US20240366539A1, “METHODS FOR TREATING AUTISM SPECTRUM DISORDERS” (INSTITUT NATIONAL DE LA SANTÉ ET DE LA RECHERCHE MÉDICALE, priority 2021, published 2024)
“Also recorded” adds a separate entry of the source.

Experiments:
Oprm1^−/− mice [1] = assay: Novelty-suppressed feeding; assay type: in vivo, mouse
Procedure: (§1) Mice were treated with vehicle (NaCl 0.9%; ip, 10 or 20 ml/kg), NaBr (Sigma-Aldrich, Saint-Quentin Fallavier, France) administered either chronically (once a day, 10, 30, 70, 125, 250 and 500 mg/kg; i.p. or per os, in a volume of 20 ml/kg—except for combination with VU0155041: […]) or acutely (250 mg/kg, 20 ml/kg), KBr (Sigma-Aldrich, Saint-Quentin Fallavier, France; 145 mg/kg; i.p., 20 ml/kg), bumetanide (R&D systems, Minneapolis, USA, 0.5 and 2 mg/kg; i.p., 20 ml/kg) or VU0155041 (Cayman Chemicals, Ann Arbor, USA, once a day, i.p., 1 mg/kg, 10 ml/kg). […] When treatment was given chronically, behavioral testing started 8 days after beginning of daily administration. Treatment was maintained for 8 to 18 consecutive days (see timelines in FIGS. 1 and 4), allowing thorough behavioral phenotyping. On testing days, or when treatment was given acutely, drugs (or vehicle) were administered 30 min before behavioral assays.
Novelty-suppressed feeding. Novelty-suppressed feeding (NSF) was measured in 24-hr food-deprived mice, isolated in a standard housing cage for 30 min before individual testing. Three pellets of ordinary lab chow were placed on a white tissue in the center of each arena, lit at 60 lx. Each mouse was placed in a corner of an arena and allowed to explore for a maximum of 15 min. Latency to feed was measured as the time necessary to bite a food pellet. Immediately after an eating event, the mouse was transferred back to home cage (free from cage-mates) and allowed to feed on lab chow for 5 min. Food consumption in the home cage was measured.

Fmr1^−/− mice [2] = assay: Marble-burying; assay type: in vivo, mouse; settings: Fmr1+/+ and Fmr1−/− mice; chronic NaBr 250 mg/kg once daily
Procedure: as §1
(§2) Marble-burying. Marble burying was used as a measure of perseverative behavior (68). Mice were introduced individually in transparent cages (21×11×17 cm) containing 20 glass marbles (diameter: 1.5 cm) evenly spaced on 4-cm deep fresh sawdust. To prevent escapes, each cage was covered with a filtering lid. Light intensity in the room was set at 40 lux. The animals were removed from the cages after 15 min, and the number of marbles buried more than half in sawdust was quoted.
(§3) To this purpose, we evaluated the effects of chronic NaBr administration at the dose of 250 mg/kg on autism-sensitive behaviors in these lines (FIG. 3A).

Shank3^Δex13-16−/− mice [3] = assay: Marble-burying; assay type: in vivo, mouse; settings: Shank3Δex13-16−/− and WT mice, chronic NaBr 250 mg/kg once daily
Procedure: as §1, §2, §3

Oprm1^−/− mice [4] = assay: Behavioral tests of social, repetitive and anxious behavior (oral NaBr, KBr; data not shown); settings: mouse, in vivo, po, 250 mg/kg
Procedure: as §1
Also, we assessed the behavioral effects of chronic administration of another bromide salt, KBr.

rat mGlu4 receptor = biological target: T1, rat mGlu4 receptor (Rattus norvegicus, UniProt P31423); assay: IP1 accumulation assay, mGlu4 signaling under glutamate stimulation; assay type: cell-based
T1 construct: expressed in transfected cells
T1 sequence (P31423 33-912): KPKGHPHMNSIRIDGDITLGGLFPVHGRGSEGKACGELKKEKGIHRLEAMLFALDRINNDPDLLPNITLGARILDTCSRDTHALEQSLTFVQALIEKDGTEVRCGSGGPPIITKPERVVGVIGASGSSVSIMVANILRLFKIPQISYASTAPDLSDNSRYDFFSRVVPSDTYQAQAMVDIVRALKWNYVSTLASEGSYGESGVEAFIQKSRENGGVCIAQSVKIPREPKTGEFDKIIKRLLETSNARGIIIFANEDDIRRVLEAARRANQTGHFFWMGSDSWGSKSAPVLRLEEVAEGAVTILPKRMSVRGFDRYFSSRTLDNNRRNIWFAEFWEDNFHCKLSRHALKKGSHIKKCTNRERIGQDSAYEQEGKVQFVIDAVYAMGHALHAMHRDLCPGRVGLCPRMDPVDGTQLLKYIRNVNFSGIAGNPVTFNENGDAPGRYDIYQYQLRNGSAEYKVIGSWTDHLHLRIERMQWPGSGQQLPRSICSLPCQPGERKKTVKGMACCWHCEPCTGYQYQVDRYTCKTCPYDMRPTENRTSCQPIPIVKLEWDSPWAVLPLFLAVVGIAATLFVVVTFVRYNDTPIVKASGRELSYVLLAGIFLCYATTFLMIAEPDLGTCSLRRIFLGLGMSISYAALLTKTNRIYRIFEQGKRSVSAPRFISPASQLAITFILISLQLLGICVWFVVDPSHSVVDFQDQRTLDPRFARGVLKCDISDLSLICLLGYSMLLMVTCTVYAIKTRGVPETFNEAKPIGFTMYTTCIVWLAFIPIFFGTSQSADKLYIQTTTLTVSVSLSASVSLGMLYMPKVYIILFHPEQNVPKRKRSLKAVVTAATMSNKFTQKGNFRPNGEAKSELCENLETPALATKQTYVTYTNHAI
Procedure: Human embryonic kidney (HEK) 293 cells were transiently transfected with rat mGlu4 receptor by electroporation together with a chimeric Gi/Gq protein to allow phospholipase activation and EAAC1, a glutamate transporter, to avoid influence of extracellular glutamate. […] 96-well plate (Greiner Bio-One) at the density of 100,000 cells per well and for IPOne assay in a PLO-coated black 96-well plate (Greiner Bio-One) at the density of 50,000 cells per well. Cells were cultured in DMEM (Gibco™, Life Technologies), supplemented with 10% fetal bovine serum. Medium was changed by GlutaMAX (Gibco™, Life Technologies) to reduce extracellular glutamate concentration 3 h before experiment. […]
IP1 accumulation assay: Inositol monophosphate accumulation was determined using the IP-One HTRF (Homogenous Time Resolved Fluorescence) kit (Cisbio Bioassays, Perkin Elmer, Codolet, France) according to the manufacturer's recommendations (72). […]
Data were analyzed using Prism 6 software (GraphPad Software, San Diego, CA, USA). […] Statistical differences between pEC50, ΔpEC50 and Emax were determined using a one-way analysis of variance followed by Tukey's post-test.
We measured mGlu4 signaling under glutamate stimulation in HEK293T cells transiently expressing mGlu4 receptors and Gαqi9, a Gi/Gq chimeric G-protein (57) that allows mGlu4 to activate the phosphoinositide pathway.

Fmr1^−/− mice [5] = assay: Y-maze exploration; assay type: in vivo, mouse; settings: chronic NaBr 250 mg/kg once daily
Procedure: as §1
(§4) Y-maze exploration. Spontaneous alternation behavior was used to assess perseverative behavior (65-67). Each Y-maze consisted of three connected Plexiglas arms (15×15×17 cm) covered with distinct wall patterns (15 lx). Floors were covered with lightly sprayed fresh sawdust to limit anxiety.
as §3

Shank3^Δex13-16−/− mice [6] = assay: Y-maze exploration; assay type: in vivo, mouse; settings: Shank3Δex13-16−/− mice; chronic NaBr 250 mg/kg once daily
Procedure: as §1, §4, §3

Oprm1^−/− mice [7] = assay: Motor stereotypies; assay type: in vivo, mouse
Procedure: as §1
Motor stereotypies. To detect motor stereotypies in mutant versus wild-type animals, mice were individually placed in clear standard home cages (21×11×17 cm) filled with 3-cm deep fresh sawdust for 10 min (64). Light intensity was set at 30 lux. Trained experimenters scored numbers of head shakes, as well as rearing, burying, grooming, circling episodes and total time spent burying by direct observation.

[8] = Oprm1+/+ mice, chronic NaBr 10-500 mg/kg
[9] = Oprm1−/− mice, chronic NaBr 10-500 mg/kg or bumetanide 0.5 and 2 mg/kg

[Br-].[Na+] [NaBr, sodium bromide]
latency to feed (Oprm1^−/− mice [1]; Oprm1−/− mice, chronic NaBr 70 mg/kg): sufficient to normalize latency to feed | latency to eat (Oprm1^−/− mice [1]; Oprm1−/− mice, chronic NaBr (since the lowest dose tested) or bumetanide): normalized eating latency | food intake (Oprm1^−/− mice [1]; both mouse lines, chronic NaBr (since the lowest dose tested) or bumetanide): increased food intake in both mouse lines | number of buried marbles (Fmr1^−/− mice [2]): reduced the number of buried marbles in both Fmr1^+/+ and Fmr1^−/− mice | marble burying (Shank3^Δex13-16−/− mice [3]): had no effect on reduced burying in Shank3^Δex13-16−/− mice | marble burying (Shank3^Δex13-16−/− mice [3]; listed as bromide): decreased burying in both mutant and WT mice | autistic-like deficits and motor stereotypies (Oprm1^−/− mice [4]): relieved autistic-like deficits and motor stereotypies in Oprm1^−/− mice in a similar way as it did after intra-peritoneal injection | increase in glutamate efficacy (Emax, maximal IP1 production) (rat mGlu4 receptor; HEK293 cells, mGlu4 + Gαqi9, bromide): 60±10% | ΔpEC50 of glutamate between physiological Cl− concentration and after addition of Br− (rat mGlu4 receptor; addition of Br− (so in the source)): 0.42±0.03 | perseverative same arm returns (Fmr1^−/− mice [5]): suppressed under chronic bromide | perseverative same arm returns (Shank3^Δex13-16−/− mice [6]): suppressed under chronic bromide | number of grooming episodes in wild-type controls (Oprm1^−/− mice [7]; [8]): dose-dependently increased the number of grooming episodes; also recorded: at 500 mg/kg increased the frequency of grooming episodes and head shakes | number of head shakes in wild-type controls (Oprm1^−/− mice [7]; [8]): dose-dependently increased; also recorded: at 500 mg/kg increased the frequency of grooming episodes and head shakes | number of head shakes (Oprm1^−/− mice [7]; [9]): decreased under NaBr treatment since the lowest dose; also recorded: less consistently reduced the number of head shakes (doses over 125 mg/kg) | stereotypic circling episodes (Oprm1^−/− mice [7]; [9]): decreased under NaBr treatment since the lowest dose | number of rearing episodes (Oprm1^−/− mice [7]; both mouse lines (Oprm1−/− and Oprm1+/+), chronic NaBr or bumetanide): increased the number of rearing episodes in a dose-dependent manner
